Patent US20180228795A1, “COMBINATION THERAPY FOR CANCER” (Eli Lilly and Company, priority 2015, published 2018)

Test system: PDX TNBC Model CTG-1340
Assay: Antitumor effects in PDX mouse model of TNBC
Assay type: in vivo
Settings: PDX model CTG-1340; A 10 mg/kg SC BID 3 days on/4 off ×4; B 7.5 mg/kg PO BID×28; versus vehicle
Summary of the method: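 Combination interaction was judged by the Bliss method, comparing observed relative volume against YExp=(Y1*Y2)/YV with additivity limits. Relative volumes were taken at last dosing day or ≥14 days after baseline. Dosing: 10 mg/kg SC BID intermittent CHK1 inhibitor, 7.5 mg/kg PO BID PI3K/mTOR inhibitor.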

Compound	% Rsp. (% ΔT/ΔC or % Regression) [%]
COc1cccc(OCCCN)c1-c1cc(Nc2cnc(C#N)cn2)n[nH]1.CS(=O)(=O)O [Compound A, 5-(5-(2-(3-aminopropoxy)-6-methoxyphenyl)-1H-pyrazol-3-ylamino)pyrazine-2-carbonitrile methanesulfonate hydrate]	41.0
CO[C@@H](C)Cn1c(=O)n(C)c2cnc3ccc(-c4cncc(C(C)(C)O)c4)cc3c21 [Compound B, 8-[5-(1-hydroxy-1-methylethyl)pyridin-3-yl]-1-[(2S)-2-methoxypropyl]-3-methyl-1,3-dihydro-2H-imidazo[4,5-c]quinolin-2-one]	17.1
